The results in this text go back to publication PMC10763615, “Identification and engineering of potent cyclic peptides with selective or promiscuous binding through biochemical profiling and bioinformatic data analysis” (RSC Chemical Biology, 2023).

Read-outs that look alike come from different tables or passages of the source. Positions of bridges follow the written chain, without caps; N, C: chain ends. Residues, ends and D or L forms follow the SMILES beside them.

Format in all cases: binding
One test concerns the target T1, FGF-R1C ECD (Homo sapiens, UniProt P11362).
T1 sequence (P11362 22-376 limits assumed): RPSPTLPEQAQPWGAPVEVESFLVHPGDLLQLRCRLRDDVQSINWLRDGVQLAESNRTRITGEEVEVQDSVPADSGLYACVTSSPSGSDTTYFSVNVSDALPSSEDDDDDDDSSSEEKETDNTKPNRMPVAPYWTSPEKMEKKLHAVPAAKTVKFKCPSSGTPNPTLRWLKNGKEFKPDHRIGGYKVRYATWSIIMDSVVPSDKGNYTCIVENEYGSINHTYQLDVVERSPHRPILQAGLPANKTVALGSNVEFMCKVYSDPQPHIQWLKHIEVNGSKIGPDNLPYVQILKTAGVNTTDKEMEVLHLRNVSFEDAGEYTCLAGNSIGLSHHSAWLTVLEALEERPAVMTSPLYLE
The experiment in a line: biochemical. Set-up: DNA constructs for the extracellular domain (ECD) of human FGF-; HPC4 (C); made in house; host or cells: HEK 293-6E. The method in brief:
(§1)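 Streptavidin biosensors carrying biotinylated FGF receptor ECD were immersed in peptide (~1 μM for crude single-point runs, a concentration series for purified peptides) and then in peptide-free buffer. KD was obtained by fitting the BLI association and dissociation curves.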

A further test has as its target T2, FGF-R3C ECD (Homo sapiens, UniProt P22607).
T2 sequence (P22607 23-375 limits assumed): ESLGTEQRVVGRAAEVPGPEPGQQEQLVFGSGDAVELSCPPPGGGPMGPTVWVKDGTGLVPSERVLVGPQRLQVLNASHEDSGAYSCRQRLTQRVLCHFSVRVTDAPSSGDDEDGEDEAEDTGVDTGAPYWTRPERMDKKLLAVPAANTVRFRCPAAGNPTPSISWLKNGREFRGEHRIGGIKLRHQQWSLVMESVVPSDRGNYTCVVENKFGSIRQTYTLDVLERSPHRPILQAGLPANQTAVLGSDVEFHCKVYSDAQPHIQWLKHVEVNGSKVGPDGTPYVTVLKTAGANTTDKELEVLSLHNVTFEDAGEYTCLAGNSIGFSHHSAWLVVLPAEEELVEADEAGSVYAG
Briefly: biochemical. Set-up: DNA constructs for the extracellular domain (ECD) of human FGF-; HPC4 (C); made in house; host or cells: HEK 293-6E. The method in brief: as §1

The target of a further test is T3, FGF-R4 ECD (Homo sapiens, UniProt P22455).
T3 construct: DNA constructs for the extracellular domain (ECD) of human FGF-; HPC4 (C); made in house; host or cells: HEK 293-6E
T3 sequence (P22455 22-369 limits assumed): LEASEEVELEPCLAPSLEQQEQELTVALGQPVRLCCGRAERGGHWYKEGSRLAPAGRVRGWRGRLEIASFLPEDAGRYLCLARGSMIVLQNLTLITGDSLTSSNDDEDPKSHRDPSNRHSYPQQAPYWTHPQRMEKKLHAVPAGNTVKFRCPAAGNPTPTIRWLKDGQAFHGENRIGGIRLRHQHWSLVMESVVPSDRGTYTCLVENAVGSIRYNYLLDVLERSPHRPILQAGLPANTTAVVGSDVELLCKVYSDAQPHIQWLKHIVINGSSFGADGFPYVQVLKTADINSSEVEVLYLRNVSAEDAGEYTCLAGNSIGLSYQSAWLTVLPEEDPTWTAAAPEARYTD
The experiment in a line: single concentration BLI of crude peptides. The settings on record: read-out: KD (4). The method in brief: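 Biotinylated FGF-R ECD on streptavidin biosensors was dipped into ~1 μM crude peptide in PBS pH7.4 with 0.05% Tween-20 and 0.01% BSA for association, then into buffer for dissociation, and followed by BLI. Fitted KD values were adjusted for peptide concentration measured by UPLC-CAD.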

Setting [1] is: crude T18 selection 1 (1:1:1) peptides, single concentration BLI (Table S4).
The mark [2] stands for this setting: crude NNK peptides, single concentration BLI (Table S3).

Take `CC[C@H](C)[C@@H]1NC(=O)[C@H](Cc2ccc(O)cc2)NC(=O)[C@H](CCCCN)NC(=O)[C@H](C(C)C)NC(=O)[C@@H](NC(=O)[C@H](CCSC)NC(C)=O)CSSC[C@@H](C(=O)NCC(=O)N[C@@H](CO)C(=O)NCC(=O)N[C@@H](CO)C(=O)N[C@@H](CC(=O)O)C(=O)N[C@@H](Cc2ccc(O)cc2)C(=O)N[C@@H](CCCCN)C(=O)N[C@@H](CC(=O)O)C(=O)N[C@@H](CC(=O)O)C(=O)N[C@@H](CC(=O)O)C(=O)N[C@@H](CC(=O)O)C(=O)N[C@@H](CCCCN)C(N)=O)NC(=O)[C@H](Cc2c[nH]cn2)NC(=O)[C@H](Cc2ccccc2)NC(=O)[C@H](C(C)C)NC(=O)[C@H](CO)NC(=O)[C@H](Cc2c[nH]c3ccccc23)NC(=O)[C@H](Cc2ccc(O)cc2)NC(=O)[C@H](CCCCN)NC1=O` (Ac-MCVKYIKYWSVFHCGSGSDYKDDDDK-NH2; disulfide 2-14): the Kd (usually a measure of binding affinity in units of concentration) on FGF-R1C ECD is greater than 10 µM; on FGF-R3C ECD, greater than 10 µM; on FGF-R4 ECD (setting [1]), 0.017 µM.
For `CSCC[C@H](NC(C)=O)C(=O)N[C@H]1CSSC[C@@H](C(=O)NCC(=O)N[C@@H](CO)C(=O)NCC(=O)N[C@@H](CO)C(=O)N[C@@H](CC(=O)O)C(=O)N[C@@H](Cc2ccc(O)cc2)C(=O)N[C@@H](CCCCN)C(=O)N[C@@H](CC(=O)O)C(=O)N[C@@H](CC(=O)O)C(=O)N[C@@H](CC(=O)O)C(=O)N[C@@H](CC(=O)O)C(=O)N[C@@H](CCCCN)C(N)=O)NC(=O)[C@@H]2CCCN2C(=O)[C@H](CCC(N)=O)NC(=O)[C@H](Cc2c[nH]c3ccccc23)NC(=O)[C@H](CCC(=O)O)NC(=O)[C@H](CCC(=O)O)NC(=O)[C@H]([C@@H](C)O)NC(=O)[C@H](Cc2c[nH]c3ccccc23)NC(=O)[C@H](Cc2ccccc2)NC(=O)[C@H](CCCNC(=N)N)NC(=O)[C@H]([C@@H](C)O)NC(=O)[C@H](Cc2ccc(O)cc2)NC1=O` (Ac-MCYTRFWTEEWQPCGSGSDYKDDDDK-NH2; disulfide 2-14), the dissociation constant Kd on FGF-R1C ECD, at FGF-R3C ECD and at FGF-R4 ECD (setting [1]) was greater than 10 µM in each case.
`CC[C@H](C)[C@@H]1NC(=O)[C@H](Cc2ccc(O)cc2)NC(=O)[C@H](Cc2c[nH]cn2)NC(=O)[C@@H](NC(=O)[C@H](CCSC)NC(C)=O)CSSC[C@@H](C(=O)NCC(=O)N[C@@H](CO)C(=O)NCC(=O)N[C@@H](CO)C(=O)N[C@@H](CC(=O)O)C(=O)N[C@@H](Cc2ccc(O)cc2)C(=O)N[C@@H](CCCCN)C(=O)N[C@@H](CC(=O)O)C(=O)N[C@@H](CC(=O)O)C(=O)N[C@@H](CC(=O)O)C(=O)N[C@@H](CC(=O)O)C(=O)N[C@@H](CCCCN)C(N)=O)NC(=O)[C@H](CC(C)C)NC(=O)[C@H](Cc2c[nH]c3ccccc23)NC(=O)[C@H](CC(=O)O)NC(=O)[C@H](CO)NC1=O` (Ac-MCHYISDWLCGSGSDYKDDDDK-NH2; disulfide 2-10): the dissociation constant Kd on FGF-R1C ECD, on FGF-R3C ECD and at FGF-R4 ECD (setting [2]) was greater than 10 µM each time.
On to `CSCC[C@H](NC(C)=O)C(=O)N[C@H]1CSSC[C@@H](C(=O)NCC(=O)N[C@@H](CO)C(=O)NCC(=O)N[C@@H](CO)C(=O)N[C@@H](CC(=O)O)C(=O)N[C@@H](Cc2ccc(O)cc2)C(=O)N[C@@H](CCCCN)C(=O)N[C@@H](CC(=O)O)C(=O)N[C@@H](CC(=O)O)C(=O)N[C@@H](CC(=O)O)C(=O)N[C@@H](CC(=O)O)C(=O)N[C@@H](CCCCN)C(N)=O)NC(=O)[C@H](CCCCN)NC(=O)[C@H](CC(C)C)NC(=O)[C@H](C(C)C)NC(=O)[C@H](CC(C)C)NC(=O)[C@H](CCC(=O)O)NC(=O)[C@@H]2CCCN2C(=O)[C@H](CCSC)NC(=O)[C@H](Cc2ccccc2)NC(=O)[C@H](Cc2c[nH]c3ccccc23)NC(=O)[C@H](Cc2c[nH]c3ccccc23)NC1=O` (Ac-MCWWFMPELVLKCGSGSDYKDDDDK-NH2; disulfide 2-13), for which the Kd on FGF-R1C ECD, at FGF-R3C ECD and on FGF-R4 ECD (setting [2]) was greater than 10 µM in each case.
